According to ChEMBL document CHEMBL1132708, “Synthesis and voltage-clamp studies of methyl 1,4-dihydro-2, 6-dimethyl-5-nitro-4-(benzofurazanyl)pyridine-3-carboxylate racemates and enantiomers and of their benzofuroxanyl analogues” (J Med Chem, 1999):
Blank lines part the entries; values can stand above or below the molecule they belong to.

How the values were obtained:
Format in all cases: functional
[1] = molecular target: T1, Voltage-gated L-type calcium channel (Rattus norvegicus, UniProt P22002+Q02485+P27732); test: Percent increase in current at -20 mV on L-type [Ca2+] channels in rat RIN-m5F at 3 insulinoma cells (n = 5)
[2] = molecular target: T1, Voltage-gated L-type calcium channel; test: Percent increase in current at -20 mV on L-type [Ca2+] channels in rat RIN-m5F at 3 insulinoma cells (n = 8)
[3] = molecular target: T1, Voltage-gated L-type calcium channel; test: Percent block of total Ba2+ current on L-type [Ca2+] channels in rat RIN-m5F at 3 insulinoma cells (n = 12)

Increase [1]: 224%
Structure (SMILES): CO/C(O)=C1\C(C)=NC(C)=C([N+](=O)[O-])C1c1ccc2nonc2c1 (single isomer, unassigned; (+))

Increase [2]: 247%
Structure (SMILES): CO/C(O)=C1\C(C)=NC(C)=C([N+](=O)[O-])C1c1ccc2nonc2c1 (racemic)

Increase [3]: 164%
Structure (SMILES): CO/C(O)=C1\C(C)=NC(C)=C([N+](=O)[O-])C1c1cccc2nonc12 (single isomer, unassigned; (+))
